Source: patent publication US20080207573A1, “COMPOUNDS FOR TREATING VIRAL INFECTIONS” (priority 2006, published 2008)

How the values were obtained:
[1] = tested on: HIV-1 laboratory strain, NL4-3; experiment: MT-4 Cytoprotection Assay (protection from HIV-induced cytopathic effect, WST-1 readout); format: cell-based; conditions: Human immunodeficiency virus 1, NL43; list of representative compounds; read-out: EC50 of less than about 100 nm (representative compounds)
Description: MT-4 Cytoprotection Assay
The HTLV-1 transformed T cell line, MT-4, is highly susceptible to HIV-1 infection. Anti-HIV-1 agents were evaluated in this target cell line by protection from the HIV-induced cytopathic effect. In this assay, viability of both HIV-1 and mock-infected cells was assessed in a […] assay that monitors the ability of metabolically-active cells to reduce the tetrazolium salt WST-1. Cytoprotection by antiviral compounds is indicated by the positive readout of increased WST-1 cleavage.
Briefly, exponentially growing MT-4 cells were mock-infected or batch-infected with the HIV-1 laboratory strain, NL4-3, at a multiplicity of infection of 0.0005. Following a two hour infection, the cells were washed to remove unbound virus and plated in the presence of increasing concentrations of compound. After four days incubation, cytoprotection in the infected cells and compound toxicity in mock-infected cells were analyzed using the WST-1 assay.

[2] = Human Liver Microsome Assay (metabolic stability); format: in vitro ADME; conditions: human liver microsomes 0.5 mg/mL, test article 1 μM
Description: Human Liver Microsome Assay
The microsomal fraction of liver homogenates contains endoplasmic reticulum derived cytochrome P450 enzymes that constitute the major phase I drug metabolizing enzymes. Briefly, to aid prediction of the in vivo rate of clearance of a dosed test article, an in vitro incubation containing human liver microsomes (0.5 mg/mL final protein concentration) and test article (1 μM incubation concentration) in the presence and absence of the necessary cofactor NADPH (1 mM incubation concentration) is conducted. The incubation is performed in a buffered aqueous system (100 mM potassium phosphate, pH 7.4). The concentration of the parent compound is determined using liquid chromatography coupled with tandem mass spectrometry and reported as percent remaining from a zero minute concentrations.

[3] = tested on: HIV-1 laboratory strain, NL4-3; experiment: MT-4 Cytoprotection Assay (protection from HIV-induced cytopathic effect, WST-1 readout); format: cell-based; conditions: Human immunodeficiency virus 1, NL43; Table 6, printed in the MT4 IC50 column but marked MT4 assay

C=C(C)[C@@H]1CC[C@]2(C(=O)NCc3ccccn3)CC[C@]3(C)[C@H](CC[C@@H]4[C@@]5(C)CC[C@H](OC(=O)CC(C)(C)C(=O)O)C(C)(C)[C@@H]5CC[C@]43C)[C@@H]12 [Compound 83]
EC50 [1]: < 100 nM | Metabolic Stability in Human liver Microsomes % compound remaining at 40 minutes ([2]; 40 minutes): 11% | half-life at 1 μM ([2]; pH 7.4, read-out: Metabolic Stability in Human liver Microsomes T1/2): < 10 min | IC50 [3]: 4.6 nM
